Tests used:
[1] = tested on: human lung cancer cells (A-549); test: MTT assay, in vitro growth inhibition, A-549 cells; assay type: cell-based; design: in vitro growth inhibition rate, A549: unit not given here; conditions: test drug concentration 4 μg/mL, 37° C., 3 days; for inhibition at 4 µg/mL: Homo sapiens, A549, 72 h, read-out: in vitro growth inhibition rate, A549
Procedure: (§1) The in vitro cytotoxicity of the compounds of the present invention was tested with reference to the experimental methods reported in the literature (Liu Yanqin et al., Organic Chemistry, 2002, 22(4), 279-282). The human oral epithelial cancer cells (KB), human lung cancer cells (A-549), and breast cancer cells (MDA) were used to test the in vitro growth inhibition rate of the compounds by MTT assay. Cells were cultured at 37° C. for 3 days under a test drug concentration of 4 μg/mL.

[2] = tested on: breast cancer cells (MDA); test: MTT assay, in vitro growth inhibition, MDA cells; assay type: cell-based; design: in vitro growth inhibition rate, MDA: unit not given here; conditions: test drug concentration 4 μg/mL, 37° C., 3 days; for inhibition at 4 µg/mL: 72 h, read-out: in vitro growth inhibition rate, MDA
Procedure: as §1

SMILES	in vitro growth inhibition rate, A549 [1]	in vitro growth inhibition rate, MDA [2]	inhibition at 4 µg/mL [1] [%]	inhibition at 4 µg/mL [2] [%]
CNC(C)CNC(=O)c1cccc2cc3ccccc3nc12 (stereo not shown) [Compound 5]	−11	−5.1	–	–
CCNC(C)CNC(=O)c1cccc2cc3ccccc3nc12 (stereo not shown) [Compound 6]	−5	−1.5	–	–
CCN(C)C(C)CNC(=O)c1cccc2cc3ccccc3nc12 (stereo not shown) [Compound 7]	−5.8	4.4	–	–
CCN(CC)C(C)CNC(=O)c1cccc2cc3ccccc3nc12 (stereo not shown) [Compound 8]	−6.6	−4.7	–	–
CC(C)N(C)C(C)CNC(=O)c1cccc2cc3ccccc3nc12 (stereo not shown) [Compound 10, N-[2-(N-isopropylmethylamino)propyl]acridine-4-carboxamide]	–	–	3.3	1.2
CCNCC(C)NC(=O)c1cccc2cc3ccccc3nc12 (stereo not shown) [Compound 22]	3.1	2.5	–	–
Cc1cccc2nc3cccc(C(=O)NCC(C)N(C)C(C)C)c3nc12 (stereo not shown) [Compound 50, N-[2-(N-isopropylmethylamino)propyl]-1-methylphenazine-9-carboxamide]	–	–	-7.8	-7.2
Cc1cccc2nc3cccc(C(=O)NC(C)CN(C)C(C)C)c3nc12 (stereo not shown) [Compound 66, N-[1-methyl-2-(N-isopropylmethylamino)ethyl]-1-methylphenazine-9-carboxamide]	–	–	1.2	1.9
CNCCNC(=O)c1cn(-c2ccc(F)cc2)c(=O)c2cc3cccc(C)c3nc12 [Compound 85]	−3.4	−1.8	–	–
CCN(C)CCNC(=O)c1cn(-c2ccc(F)cc2)c(=O)c2cc3cccc(C)c3nc12 [Compound 86]	9.8	14	–	–
CCNCCNC(=O)c1cn(C)c(=O)c2cc3cccc(C)c3nc12 [Compound 87]	5	3.9	–	–
CCN(C)CCNC(=O)c1cn(C)c(=O)c2cc3cccc(C)c3nc12 [Compound 88]	1.6	1.4	–	–
CCN(C)CCNC(=O)c1cn(CC)c(=O)c2cc3cccc(C)c3nc12 [Compound 90, N-[2-(N-ethylmethylamino)ethyl]-2-ethyl-6-methyl-1-oxo-1,2-dihydrobenzo[b][1,6]naphthyridine-4-carboxamide]	–	–	3.5	6.4
CN(C)CCNC(=O)c1cccc2cc3ccccc3nc12 [DACA (1), reference compound]	–	–	1.7	2
